The values below come from patent publication US10899754B2, “Modulators of indoleamine 2,3-dioxygenase” (GLAXOSMITHKLINE INTELLECTUAL PROPERTY DEVELOPMENT LIMITED, priority 2016, dated 2021).

The structures appear in SMILES notation.

Data set [1] deals with human peripheral blood mononuclear cells (PBMC). The experiment in a line: PBMC cytotoxicity assay (CellTiter-Glo). It is filed as cell-based. As to conditions: 2 days, pCC50. Here is the method:
(§1) Compounds of the present invention were tested via high-throughput cellular assays utilizing detection of kynurenine via mass spectrometry and cytotoxicity as end-points. For the mass spectrometry and cytotoxicity assays, human peripheral blood mononuclear cells (PBMC) (PB003F; AllCells®, Alameda, Calif.) were stimulated with human interferon-γ (IFN-γ) (Sigma-Aldrich Corporation, St. Louis, Mo.) and lipopolysaccharide from Salmonella minnesota (LPS) (Invivogen, San Diego, Calif.) to induce the expression of indoleamine 2, 3-dioxygenase (IDO1). Compounds with IDO1 inhibitory properties decreased the amount of kynurenine produced by the cells via the tryptophan catabolic pathway. Cellular toxicity due to the effect of compound treatment was measured using CellTiter-Glo® reagent (CTG) (Promega Corporation, Madison, Wis.), which is based on luminescent detection of ATP, an indicator of metabolically active cells.
(§2) In preparation for the assays, test compounds were serially diluted 3-fold in DMSO from a typical top concentration of 1 mM or 5 mM and plated at 0.5 μL in 384-well, polystyrene, clear bottom, tissue culture treated plates with lids (Greiner Bio-One, Kremsmünster, Austria) to generate 11-point dose response curves. Low control wells (0% kynurenine or 100% cytotoxicity) contained either 0.5 μL of DMSO in the presence of unstimulated (−IFN-γ/−LPS) PBMCs for the mass spectrometry assay or 0.5 μL of DMSO in the absence of cells for the cytotoxicity assay, and high control wells (100% kynurenine or 0% cytotoxicity) contained 0.5 μL of DMSO in the presence of stimulated (+IFN-γ/+LPS) PBMCs for both the mass spectrometry and cytotoxicity assays.
(§3) Frozen stocks of PBMCs were washed and recovered in RPMI 1640 medium (Thermo Fisher Scientific, Inc., Waltham, Mass.) supplemented with 10% v/v heat-inactivated fetal bovine serum (FBS) (Thermo Fisher Scientific, Inc., Waltham, Mass.), and 1× penicillin-streptomycin antibiotic solution (Thermo Fisher Scientific, Inc., Waltham, Mass.). The cells were diluted to 1,000,000 cells/mL in the supplemented RPMI 1640 medium. 50 μL of either the cell suspension, for the mass spectrometry assay, or medium alone, for the cytotoxicity assay, were added to the low control wells, on the previously prepared 384-well compound plates, resulting in 50,000 cells/well or 0 cells/well respectively. IFN-γ and LPS were added to the remaining cell suspension at final concentrations of 100 ng/ml and 50 ng/ml respectively, and 50 μL of the stimulated cells were added to all remaining wells on the 384-well compound plates. The plates, with lids, were then placed in a 37° C., 5% CO2 humidified incubator for 2 days.
(§4) Following incubation, the 384-well plates were removed from the incubator and allowed to equilibrate to room temperature for 30 minutes. For the cytotoxicity assay, CellTiter-Glo® was prepared according to the manufacturer's instructions, and 40 μL were added to each plate well. After a twenty minute incubation at room temperature, luminescence was read on an EnVision® Multilabel Reader (PerkinElmer Inc., Waltham, Mass.). For the mass spectrometry assay, 10 μL of supernatant from each well of the compound-treated plates were added to 40 μL of acetonitrile, containing 10 μM of an internal standard for normalization, in 384-well, polypropylene, V-bottom plates (Greiner Bio-One, Kremsmünster, Austria) to extract the organic analytes. Following centrifugation at 2000 rpm for 10 minutes, 10 μL from each well of the acetonitrile extraction plates were added to 90 μL of sterile, distilled H2O in 384-well, polypropylene, V-bottom plates for analysis of kynurenine and the internal standard on the RapidFire 300 (Agilent Technologies, Santa Clara, Calif.) and 4000 QTRAP MS (SCIEX, Framingham, Mass.). MS data were integrated using Agilent Technologies' RapidFire Integrator software, and data were normalized for analysis as a ratio of kynurenine to the internal standard. […]

Data set [2] deals with indoleamine 2, 3-dioxygenase (IDO1) (Homo sapiens, UniProt P14902). As to the kind of experiment: IDO1 PBMC RapidFire MS assay (kynurenine detection by mass spectrometry). It is filed as cell-based. Set-up: to induce the expression of indoleamine 2, 3-dioxygenase (IDO1); host or cells: human PBMC stimulated with IFN-gamma and LPS. As to conditions: human PBMC stimulated with IFN-γ and LPS, 2 days, pIC50, read-out: PBMC PXC50 (converted). Here is the method: IDO1 PBMC RapidFire MS Assay
as §1, §2, §3, §4

Sequence of indoleamine 2, 3-dioxygenase (IDO1) (P14902 whole entry): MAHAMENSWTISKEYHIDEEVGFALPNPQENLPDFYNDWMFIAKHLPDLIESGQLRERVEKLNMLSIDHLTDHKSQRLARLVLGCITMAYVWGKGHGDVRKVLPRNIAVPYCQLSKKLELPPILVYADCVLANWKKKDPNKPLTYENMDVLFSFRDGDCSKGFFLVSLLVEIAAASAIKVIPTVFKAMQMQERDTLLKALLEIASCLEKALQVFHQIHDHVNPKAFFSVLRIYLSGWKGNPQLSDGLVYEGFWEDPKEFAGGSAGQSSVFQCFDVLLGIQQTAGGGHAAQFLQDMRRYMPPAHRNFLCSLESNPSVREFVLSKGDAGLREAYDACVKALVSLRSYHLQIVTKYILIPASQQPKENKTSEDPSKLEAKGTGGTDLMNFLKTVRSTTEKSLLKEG

In the case of `CC(C)CN(c1ccc([C@H](C)CC(=O)O)cc1Nc1ccc(Cl)c(F)n1)C1CCOCC1` [Example 14, (R)-3-(3-((5-chloro-6-fluoropyridin-2-yl)amino)-4-(isobutyl(tetrahydro-2H-pyran-4-yl)amino)phenyl)butanoic acid], the “PBMC TOX PXC50” value in data set [1] was <5. The IC50 in data set [2] is 1.26 nM.
The matching figures for `CC(C)CN(c1ccc([C@H](C)CC(=O)O)cc1Nc1n[nH]c(C(F)(F)F)n1)C1CCCCC1` [Example 78, (R)-3-(4-(cyclohexyl(isobutyl)amino)-3-((5-(trifluoromethyl)-1H-1,2,4-triazol-3-yl)amino)phenyl)butanoic Acid]: <5 and 3.16 nM.
Consider `CC(C)CN(c1ccc(C(C)Nc2c(O)c(=O)c2=O)cc1Nc1nc(C(F)(F)F)ns1)C1CCOCC1` (centres unmarked) [example 256, 3-hydroxy-4-[(1-{4-[(2-methylpropyl)(oxan-4-yl)amino]-3-{[3-(trifluoromethyl)-1,2,4-thiadiazol-5-yl]amino}phenyl}ethyl)amino]cyclobut-3-ene-1,2-dione], for which, in data set [1], the “PBMC TOX PXC50” value is recorded as <5. Further, in data set [2], the IC50 was 2510 nM.
On to `CO[C@H]1CC[C@@H](N(CC(C)C)c2ccc([C@H](C)CC(=O)O)cc2Nc2n[nH]c(C3CC3)n2)CC1` [Example 63, (R)-3-(3-((5-cyclopropyl-1H-1,2,4-triazol-3-yl)amino)-4-(isobutyl((cis)-4-methoxycyclohexyl)amino)phenyl)butanoic Acid], for which the “PBMC TOX PXC50” value in data set [1] is reported as <5. Besides, the IC50 in data set [2] was 6.31 nM.
On the same counts, the results for `CC(C)CN(c1ccc(C(C)CC(=O)O)cc1Nc1nnc(C(=O)NC(C)C)s1)C1CCCCC1` (centres unmarked) [example 245, 3-{4-[cyclohexyl(2-methylpropyl)amino]-3-({5-[(propan-2-yl)carbamoyl]-1,3,4-thiadiazol-2-yl}amino)phenyl}butanoic acid] are <5 and 398 nM.
Take `CC(C)CN(c1ccc([C@H](C)CC(=O)O)cc1Nc1nc(C(N)=O)c[nH]1)C1CCOCC1` [example 230, (3R)-3-{3-[(4-carbamoyl-1H-imidazol-2-yl)amino]-4-[(2-methylpropyl)(oxan-4-yl)amino]phenyl}butanoic acid]: the “PBMC TOX PXC50” value in data set [1] is recorded as <5. The IC50 in data set [2] was 3160 nM.
On the same counts, the results for `CC(C)CN(c1ccc(C(C)CC(=O)O)cc1Nc1nncs1)C1CCCCC1` (centres unmarked) [example 235, 3-{4-[cyclohexyl(2-methylpropyl)amino]-3-[(1,3,4-thiadiazol-2-yl)amino]phenyl}butanoic acid] are <5 and 20 nM.
With `CC(C)CN(c1ccc([C@H](C)CC(=O)O)cc1Nc1nc(C(F)(F)F)ns1)C1CCN(C(=O)OC(C)(C)C)CC1` [Example 69, (R)-3-(4-((1-(tert-butoxycarbonyl)piperidin-4-yl) (isobutyl)amino)-3-((3-(trifluoromethyl)-1,2,4-thiadiazol-5-yl)amino)phenyl)butanoic Acid], in data set [1], the “PBMC TOX PXC50” value is <5. For the same compound, the IC50 in data set [2] is 2.51 nM.
On the same counts, the results for `CC(C)CN(CC(C)C)c1ccc([C@H](C)CC(=O)O)cc1Nc1nc(C(F)(F)F)c[nH]1` [Example 85, (R)-3-(4-(diisobutylamino)-3-((4-(trifluoromethyI)-1H-imidazol-2-yl)amino)phenyl)butanoic Acid] are <5 and 2.51 nM.
As to `CC(C)CN(c1ccc([C@H](C)CC(=O)NS(=O)(=O)N(C)C)cc1Nc1nc(C(F)(F)F)ns1)C1CCOCC1` [Example 108, (R)—N—(N,N-Dimethylsulfamoyl)-3-(4-(isobutyl(tetrahydro-2H-pyran-4-yl)amino)-3-((3-(trifluoromethyl)-1,2,4-thiadiazol-5-yl)amino)phenyl)butanamide], the “PBMC TOX PXC50” value in data set [1] is given as <5. The IC50 in data set [2] was 2.51 nM.
Regarding `CC(C)CN(CC(C)C)c1ccc([C@H](C)CC(=O)O)cc1Nc1ccc(=O)n(C)c1` [example 218, (3R)-3-{4-[bis(2-methylpropyl)amino]-3-[(1-methyl-6-oxo-1,6-dihydropyridin-3-yl)amino]phenyl}butanoic acid], the “PBMC TOX PXC50” value in data set [1] is listed as <5. The IC50 in data set [2] is 2000 nM.
Turning to `CNC(=O)c1nc(Nc2cc([C@H](C)CC(=O)O)ccc2N(CC(C)C)[C@H]2CC[C@@H](OC)CC2)n[nH]1` (racemic) [example 246, (3RS)-3-(3-{[5-(methylcarbamoyl)-1H-1,2,4-triazol-3-yl]amino}-4-[(2-methylpropyl)[(1rs&,4rs&)-4-methoxycyclohexyl]ami-no]phenyl)butanoic acid], in data set [1], the “PBMC TOX PXC50” value was <5. Besides, the IC50 in data set [2] is 25.1 nM.
For `CC(C)CN(c1ccc([C@H](C)CC(=O)O)cc1Nc1ncn[nH]1)C1CCOCC1` [example 242, (3R)-3-{4-[(2-methylpropyl)(oxan-4-yl)amino]-3-[(1H-1,2,4-triazol-5-yl)amino]phenyl}butanoic acid], in data set [1], the “PBMC TOX PXC50” value was <5. In addition, in data set [2], the IC50 was 398 nM.
Turning to `CC(C)CN(c1ccc([C@H](C)CC(=O)O)cc1Nc1cnc(C(N)=O)nc1)C1CCOCC1` [example 263, (3R)-3-{3-[(2-carbamoylpyrimidin-5-yl)amino]-4-[(2-methylpropyl)(oxan-4-yl)amino]phenyl}butanoic acid], the “PBMC TOX PXC50” value in data set [1] is given as <5. In addition, in data set [2], the IC50 is 501 nM.
On the same counts, the results for `CC(C)CN(CC(C)C)c1ccc([C@H](C)CC(=O)O)cc1Nc1nc(C(F)(F)F)cn1COCC[Si](C)(C)C` [example 220, (3R)-3-{4-[bis(2-methylpropyl)amino]-3-{[4-(trifluoromethyl)-1-{[2-(trimethylsilyl)ethoxy]methyl}-1H-imidazol-2-yl]amino}phenyl}butanoic acid] are <5 and 398 nM.
Regarding `CC(C)CN(c1ccc([C@H](C)CC(=O)O)cc1Nc1ncc(C(N)=O)cn1)C1CCOCC1` [example 248, (3R)-3-{3-[(5-carbamoylpyrimidin-2-yl)amino]-4-[(2-methylpropyl)(oxan-4-yl)amino]phenyl}butanoic acid], the “PBMC TOX PXC50” value in data set [1] is on record as <5. Moreover, the IC50 in data set [2] is > 10000 nM.
As to `CC(C)CN(c1ccc(C(C)CC(=O)O)cc1Nc1nnc(C(=O)NC2CC2)s1)C1CCCCC1` (centres unmarked) [example 238, 3-{4-[cyclohexyl(2-methylpropyl)amino]-3-{[5-(cyclopropylcarbamoyl)-1,3,4-thiadiazol-2-yl]amino}phenyl}butanoic acid], in data set [1], the “PBMC TOX PXC50” value is recorded as <5. The IC50 in data set [2] is 20 nM.
Regarding `CC(C)CN(c1ccc([C@H](C)CC(=O)O)cc1Nc1ccc(Cl)cn1)C1CCOCC1` [Example 8, (R)-3-(3-((5-chloropyridin-2-yl)amino)-4-(isobutyl(tetrahydro-2H-pyran-4-yl)amino)phenyl)butanoic Acid], in data set [1], the “PBMC TOX PXC50” value is on record as <5. Also, in data set [2], the IC50 is 0.794 nM.
In the case of `CC(C)CN(c1ccc(C(C)CC(=O)O)cc1Nc1nnc(C(N)=O)s1)C1CCCCC1` (centres unmarked) [Example 80, 3-(3-((5-carbamoyl-1,3,4-thiadiazol-2-yl)amino)-4-(cyclohexyl(isobutyl)amino)phenyl)butanoic], the “PBMC TOX PXC50” value in data set [1] was <5. The IC50 in data set [2] is 1.58 nM.
